≈ marks a conversion by molar mass, not a printed value.
Key:
[1] = Solubility in water at various pH-values; assay type: physicochemical; settings: aqueous buffer, thermodynamic from solid; in 0.01% HCl; 100 mg in 190 mL; read-out: solubility limit
[2] = Solubility in water at various pH-values; assay type: physicochemical; settings: for pH solution / soluble / calculated concentration charged: 500 mg in 14 ml; for soluble: conc. 33.33 mg/mL; for calculated concentration charged: not soluble
Protocol: The solubilities in water of 6-(4-(tert-butyl)phenoxy)pyridin-3-amine (formula (Ia)) and the monohydrochloride salt thereof, i.e. 6-(4-(tert-butyl)phenoxy)pyridin-3-amine monohydrochloride, were assessed at various pH-values according to Tables 3 and 4. The solubility in water of 6-(4-(tert-butyl)phenoxy)pyridin-3-amine (formula (Ia)) according to Table 3 was assayed as follows: Free base 500 mg were charged into 14 mL of acidic media at pH=2, 4, at neutral pH=7 and basic pH=10 to afford suspensions within calculated concentration of appr. 35 mg/mL. The solubility in water of 6-(4-(tert-butyl)phenoxy)pyridin-3-amine monohydrochloride according to Table 4 was assayed as follows: HCl salt 100 mg each were charged into acidic media at pH=2 and 4 and neutral media pH=7 to furnish solutions. Most important observation was to that at a neutral solution at pH=7 drops down to pH=1 by charging HCl salt 100 mg.

[3] = 15% acetic acid soln., pH solvent 2

solubility [1]: 530 µg/mL (≈ 2190 µM)
pH solution [2, 3]: 2
soluble [2, 3]: no
calculated concentration charged [2, 3]: 33.33 mg/mL
pH solution ([2]; Fluke 33643 (pH = 4)): 4
soluble ([2]; Fluke 33643 (pH = 4)): no
calculated concentration charged ([2]; Fluke 33643 (pH = 4)): 33.33 mg/mL
pH solution ([2]; Fluke 33646 (pH = 7)): 7
soluble ([2]; Fluke 33646 (pH = 7)): no
calculated concentration charged ([2]; Fluke 33646 (pH = 7)): 33.33 mg/mL
pH solution ([2]; Fluke 33649 (pH = 10)): 10
soluble ([2]; Fluke 33649 (pH = 10)): no
calculated concentration charged ([2]; Fluke 33649 (pH = 10)): 33.33 mg/mL
solubility in water ([2]; water, in words): very poorly soluble
SMILES: CC(C)(C)c1ccc(Oc2ccc(N)cn2)cc1 [6-(4-(tert-butyl)phenoxy)pyridin-3-amine]

Reference: US11472771B2, “Process for making amino diaryl ethers and amino diaryl ethers hydrochloride salts” (CELLESTIA BIOTECH AG, priority 2018, dated 2022)
